For orientation: Ki means the dissociation constant of the complex between target and ligand, obtained from inhibition or displacement.

The values that follow come from ChEMBL document CHEMBL4422619, “Continued exploration of 1,2,4-oxadiazole periphery for carbonic anhydrase-targeting primary arene sulfonamides: Discovery of subnanomolar inhibitors of membrane-bound hCA IX isoform that selectively kill cancer cells in hypoxic environment” (Eur J Med Chem, 2019).

Calls of active or inactive are those of the source. The rule behind the calls is not given here.

One data set concerns the target Carbonic anhydrase 12 (Homo sapiens, UniProt O43570).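 Also: Stopped-flow CO2 hydration assay with phenol red indicator, 15 min, measuring inhibition of human CA XII enzymatic activity.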
The next data set has as its target Carbonic anhydrase 9 (Homo sapiens, UniProt Q16790).
Another data set addresses Carbonic anhydrase 1 (Homo sapiens, UniProt P00915). As to the kind of experiment: Inhibition of human carbonic anhydrase 1 assessed as reduction in CO2 hydration after 15 mins by phenol red staining-based stopped flow assay.
The target of a further data set is Carbonic anhydrase 2 (Homo sapiens, UniProt P00918). The experiment in a line: Inhibition of human carbonic anhydrase 2 assessed as reduction in CO2 hydration after 15 mins by phenol red staining-based stopped flow assay.
Data set [1] concerns SK-MEL-2. As to the kind of experiment: Antiproliferative activity against human SK-MEL-2 cells at 30 uM after 48 hrs in presence of normoxic condition by MTT assay. Type of data set: functional, cell-based.
The subject of data set [2] is SK-MEL-2. As to the kind of experiment: Antiproliferative activity against human SK-MEL-2 cells at 30 uM after 48 hrs in presence of hypoxic condition by MTT assay. Type of data set: functional, cell-based. (In general: Tetrazolium assays rely on reduction of a dye to a coloured formazan, in cell work by metabolically active cells.)
Data set [3] relates to ARPE-19. The experiment in a line: Antiproliferative activity against human ARPE19 cells at 30 uM after 48 hrs in presence of hypoxic condition by MTT assay. Type of data set: cell-based. The conditions noted are these: arpe-19, 48 h.
In data set [4] the test system is PANC-1. The experiment in a line: Antiproliferative activity against human PANC1 cells at 30 uM after 48 hrs in presence of hypoxic condition by MTT assay. It counts as functional, cell-based.
Data set [5] concerns PANC-1. As to the kind of experiment: Antiproliferative activity against human PANC1 cells at 30 uM after 48 hrs in presence of normoxic condition by MTT assay. Type of data set: functional, cell-based.
The subject of data set [6] is ARPE-19. The experiment in a line: Antiproliferative activity against human ARPE19 cells at 30 uM after 48 hrs in presence of normoxic condition by MTT assay. Type of data set: cell-based. The conditions noted are these: arpe-19, 48 h.
The test system of data set [7] is ARPE-19. The experiment in a line: Antiproliferative activity against human ARPE19 cells at 30 to 300 uM after 48 hrs in presence of normoxic condition by MTT assay. It counts as cell-based. The conditions noted are these: arpe-19, 48 h.
The subject of data set [8] is ARPE-19. The experiment in a line: Antiproliferative activity against human ARPE19 cells at 30 to 300 uM after 48 hrs in presence of hypoxic condition by MTT assay. Type of data set: cell-based. The conditions noted are these: arpe-19, 48 h.
Data set [9] relates to PANC-1. As to the kind of experiment: Antiproliferative activity against human PANC1 cells at 30 to 300 uM after 48 hrs in presence of hypoxic condition by MTT assay. It counts as functional, cell-based.
Data set [10] has as its system PANC-1. As to the kind of experiment: Antiproliferative activity against human PANC1 cells at 30 to 300 uM after 48 hrs in presence of normoxic condition by MTT assay. Type of data set: functional, cell-based.
Data set [11] relates to SK-MEL-2. The experiment in a line: Antiproliferative activity against human SK-MEL-2 cells at 300 uM after 48 hrs in presence of normoxic condition by MTT assay. It counts as functional, cell-based.
Data set [12] deals with SK-MEL-2. As to the kind of experiment: Antiproliferative activity against human SK-MEL-2 cells at 300 uM after 48 hrs in presence of hypoxic condition by MTT assay. It counts as functional, cell-based.
For data set [13], the system named is ARPE-19. As to the kind of experiment: Antiproliferative activity against human ARPE19 cells at 300 uM after 48 hrs in presence of hypoxic condition by MTT assay. The conditions noted are these: arpe-19, 48 h. It counts as cell-based.
The test system of data set [14] is ARPE-19. As to the kind of experiment: Antiproliferative activity against human ARPE19 cells at 300 uM after 48 hrs in presence of normoxic condition by MTT assay. The conditions noted are these: arpe-19, 48 h. Type of data set: cell-based.
The subject of data set [15] is PANC-1. The experiment in a line: Antiproliferative activity against human PANC1 cells after 48 hrs in presence of hypoxic condition by MTT assay. It counts as functional, cell-based.
Data set [16] has as its system PANC-1. As to the kind of experiment: Antiproliferative activity against human PANC1 cells after 48 hrs in presence of normoxic condition by MTT assay. It counts as functional, cell-based.
In data set [17] the test system is SK-MEL-2. As to the kind of experiment: Antiproliferative activity against human SK-MEL-2 cells after 48 hrs in presence of hypoxic condition by MTT assay. Type of data set: functional, cell-based.
For data set [18], the system named is SK-MEL-2. As to the kind of experiment: Antiproliferative activity against human SK-MEL-2 cells after 48 hrs in presence of normoxic condition by MTT assay. Type of data set: functional, cell-based.
Data set [19] relates to PANC-1. As to the kind of experiment: Antiproliferative activity against human PANC1 cells at 300 uM after 48 hrs in presence of hypoxic condition by MTT assay. It counts as functional, cell-based.
The subject of data set [20] is PANC-1. The experiment in a line: Antiproliferative activity against human PANC1 cells at 300 uM after 48 hrs in presence of normoxic condition by MTT assay. It counts as functional, cell-based.

Sequence of Carbonic anhydrase 1 (P00915 whole entry): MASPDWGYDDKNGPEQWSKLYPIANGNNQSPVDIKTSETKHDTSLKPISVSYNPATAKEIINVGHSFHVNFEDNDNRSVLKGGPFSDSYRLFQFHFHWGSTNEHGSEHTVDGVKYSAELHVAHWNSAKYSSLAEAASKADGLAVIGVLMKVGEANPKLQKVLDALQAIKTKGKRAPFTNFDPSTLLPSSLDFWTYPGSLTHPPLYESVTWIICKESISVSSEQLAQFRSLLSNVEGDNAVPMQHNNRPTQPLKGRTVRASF
Sequence of Carbonic anhydrase 12 (O43570 whole entry): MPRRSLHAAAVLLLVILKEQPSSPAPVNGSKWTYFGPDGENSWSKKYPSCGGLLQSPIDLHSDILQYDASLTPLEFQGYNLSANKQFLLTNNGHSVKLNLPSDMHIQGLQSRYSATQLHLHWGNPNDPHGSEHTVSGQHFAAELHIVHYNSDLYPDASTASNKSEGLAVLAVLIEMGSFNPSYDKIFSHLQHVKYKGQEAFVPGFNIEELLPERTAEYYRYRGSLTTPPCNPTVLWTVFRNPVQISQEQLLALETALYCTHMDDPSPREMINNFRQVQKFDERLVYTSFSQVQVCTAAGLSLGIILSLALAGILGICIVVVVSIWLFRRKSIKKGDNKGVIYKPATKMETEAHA
Description for Carbonic anhydrase 12: Inhibition of human carbonic anhydrase 12 assessed as reduction in CO2 hydration after 15 mins by phenol red staining-based stopped flow assay
Description for Carbonic anhydrase 9: Inhibition of human carbonic anhydrase 9 assessed as reduction in CO2 hydration after 15 mins by phenol red staining-based stopped flow assay

As to `NS(=O)(=O)c1ccc(-c2noc(-c3ccncc3)n2)cc1`, the Ki on Carbonic anhydrase 12 was found to be 8.2 nM; at Carbonic anhydrase 9, 0.44 nM; on Carbonic anhydrase 1 it was 48 nM; at Carbonic anhydrase 2, 0.3 nM.
`NS(=O)(=O)c1cc(-c2nc(C3CC3)no2)cs1`: the Ki is 10.3 nM at Carbonic anhydrase 12, 0.089 nM at Carbonic anhydrase 9, 9.3 nM on Carbonic anhydrase 1 and 0.75 nM on Carbonic anhydrase 2. Also, the outcome in the data set with SK-MEL-2 [1], with SK-MEL-2 [2], in the data set with PANC-1 [4] and in the data set with PANC-1 [5] was Active. Besides, the Activity result with ARPE-19 [3] and with ARPE-19 [6] was “Non-Toxic” each time.
Take `NS(=O)(=O)c1cccc(-c2noc(C3CC3)n2)c1`: the Activity entry in the data set on ARPE-19 [7] and with ARPE-19 [8] was “Non-Toxic” throughout. Further, the outcome with PANC-1 [9] and in the data set with PANC-1 [10] was Active.
With `NS(=O)(=O)c1ccc(-c2noc(-c3cccs3)n2)cc1`, the Ki at Carbonic anhydrase 12 stood at 8.3 nM; at Carbonic anhydrase 9, 0.36 nM; on Carbonic anhydrase 1 it was 7.9 nM; at Carbonic anhydrase 2, 0.39 nM. For the same compound, the outcome in the data set on SK-MEL-2 [11], in the data set with SK-MEL-2 [1], in the data set on SK-MEL-2 [2], in the data set with PANC-1 [9], in the data set on SK-MEL-2 [12] and with PANC-1 [10] was inactive. In addition, the Activity entry in the data set on ARPE-19 [3] was “Non-Toxic”; in the data set with ARPE-19 [13], “Toxic”; with ARPE-19 [14] it was “Toxic”; with ARPE-19 [6], “Non-Toxic”.
On to `COc1cc(S(N)(=O)=O)ccc1-c1noc(-c2ccsc2)n1`, for which the Ki at Carbonic anhydrase 12 turned out to be 32.1 nM; on Carbonic anhydrase 9, 15.9 nM; at Carbonic anhydrase 1, 1160 nM; on Carbonic anhydrase 2, 92.1 nM.
As for `COc1cccc(-c2noc(-c3ccc(S(N)(=O)=O)cc3)n2)c1`, the Ki at Carbonic anhydrase 9 came to 243 nM; on Carbonic anhydrase 2, 0.48 nM.
With `COc1cc(S(N)(=O)=O)ccc1-c1noc(-c2cccnc2)n1`, the Ki on Carbonic anhydrase 12 is 16.8 nM; on Carbonic anhydrase 9 it was 12.1 nM; at Carbonic anhydrase 1, 1020 nM; on Carbonic anhydrase 2 it was 271 nM.
On to `NS(=O)(=O)c1ccc(-c2noc(C3CC3)n2)cc1`, for which the inhibition constant (Ki) is 97.1 nM on Carbonic anhydrase 12, 1.9 nM on Carbonic anhydrase 9, 7.8 nM at Carbonic anhydrase 1 and 4.1 nM at Carbonic anhydrase 2.
Turning to `COc1cc(S(N)(=O)=O)ccc1-c1noc(-c2ccccc2)n1`, the Ki amounted to 33.1 nM at Carbonic anhydrase 12, 13.1 nM at Carbonic anhydrase 9, 459 nM at Carbonic anhydrase 1 and 8.8 nM on Carbonic anhydrase 2.
On to `NS(=O)(=O)c1ccc(-c2nc(-c3ccccc3)no2)cc1`, for which the Ki at Carbonic anhydrase 9 is 6.7 nM; on Carbonic anhydrase 2, 1.8 nM.
In the case of `NS(=O)(=O)c1cccc(-c2noc(-c3ccsc3)n2)c1`, the outcome in the data set on SK-MEL-2 [11], in the data set with SK-MEL-2 [1], in the data set on SK-MEL-2 [2], in the data set on PANC-1 [9], with SK-MEL-2 [12] and with PANC-1 [10] was inactive. In addition, the Activity result in the data set with ARPE-19 [3] is recorded as “Non-Toxic”; in the data set with ARPE-19 [13] it was “Toxic”; in the data set on ARPE-19 [14], “Toxic”; in the data set on ARPE-19 [6] it was “Non-Toxic”.
Regarding `COc1cc(S(N)(=O)=O)ccc1-c1noc(-c2ccc(C#N)cc2)n1`, the Ki at Carbonic anhydrase 12 is 32.9 nM; on Carbonic anhydrase 9, 274 nM; on Carbonic anhydrase 1, 779 nM; at Carbonic anhydrase 2, 593 nM.
Consider `COc1ccccc1-c1noc(-c2csc(S(N)(=O)=O)c2)n1`, for which the Ki on Carbonic anhydrase 12 stood at 8.8 nM; on Carbonic anhydrase 9 it was 0.13 nM; on Carbonic anhydrase 1, 16.2 nM; at Carbonic anhydrase 2 it was 0.64 nM.
In the case of `COc1ccccc1-c1noc(-c2ccc(S(N)(=O)=O)cc2)n1`, the Ki came to 21.1 nM at Carbonic anhydrase 9 and 0.51 nM on Carbonic anhydrase 2.
For the compound `Cc1nc(-c2csc(S(N)(=O)=O)c2)no1`, the Ki at Carbonic anhydrase 12 came out at 10.1 nM; at Carbonic anhydrase 9 it was 1.6 nM; at Carbonic anhydrase 1, 8.1 nM; at Carbonic anhydrase 2, 0.91 nM.
On to `COc1cccc(-c2noc(-c3csc(S(N)(=O)=O)c3)n2)c1`, for which the Ki at Carbonic anhydrase 12 worked out at 33.6 nM; at Carbonic anhydrase 9, 2.2 nM; on Carbonic anhydrase 1 it was 5.4 nM; at Carbonic anhydrase 2, 0.82 nM. Moreover, the Activity entry is “Non-Toxic” with ARPE-19 [7], “Dose-dependent effect” with PANC-1 [15], “Non-Toxic” in the data set with ARPE-19 [8] and “Dose-dependent effect” in the data set on PANC-1 [16]. The outcome with PANC-1 [9] and in the data set on PANC-1 [10] was Active. Besides, the result in the data set on SK-MEL-2 [17] and in the data set with SK-MEL-2 [18] was inactive.
For `COc1cc(S(N)(=O)=O)ccc1-c1noc(-c2cccs2)n1`, the Ki at Carbonic anhydrase 9 amounted to 15.9 nM; on Carbonic anhydrase 2 it was 92.1 nM.
On to `NS(=O)(=O)c1ccc(-c2noc(-c3ccccn3)n2)cc1`, for which the Ki at Carbonic anhydrase 12 was 9.5 nM; on Carbonic anhydrase 9, 0.31 nM; on Carbonic anhydrase 1, 37.5 nM; at Carbonic anhydrase 2, 0.93 nM.
For `NS(=O)(=O)c1cc(-c2noc(C3CC3)n2)cs1`, the Ki worked out at 9.2 nM at Carbonic anhydrase 12, 2.1 nM at Carbonic anhydrase 9, 53 nM at Carbonic anhydrase 1 and 0.88 nM at Carbonic anhydrase 2.
As for `NS(=O)(=O)c1cc(-c2nc(-c3ccccn3)no2)cs1`, the inhibition constant Ki came to 8.5 nM on Carbonic anhydrase 12, 0.39 nM on Carbonic anhydrase 9, 25 nM on Carbonic anhydrase 1 and 4.3 nM on Carbonic anhydrase 2. Also, the result in the data set on SK-MEL-2 [1], in the data set with SK-MEL-2 [2] and with PANC-1 [9] was inactive. The Activity result with ARPE-19 [3] was “Non-Toxic”; in the data set with PANC-1 [15] it was “Dose-dependent effect”; in the data set on ARPE-19 [8] it was “Non-Toxic”; in the data set on PANC-1 [16], “Dose-dependent effect”; in the data set with ARPE-19 [6], “Non-Toxic”.
For `NS(=O)(=O)c1cc(-c2nc(-c3ccccc3)no2)cs1`, the Ki was 9.8 nM on Carbonic anhydrase 12, 0.24 nM on Carbonic anhydrase 9, 8.9 nM on Carbonic anhydrase 1 and 1.7 nM at Carbonic anhydrase 2. Besides, the result in the data set with PANC-1 [19] and with PANC-1 [20] was Active. The Activity result with ARPE-19 [13] and in the data set on ARPE-19 [14] was “Toxic” throughout.
